Test results published in patent US8247227B2, “Dendritic cell precursors” (The Cleveland Clinic Foundation, priority 2006, dated 2012).

Legend:
[1] = system: Flt3L+IL6 conditioned BM cells; assay: Immunosuppressive factors added to Step 2 culture: DC1 polarization; assay type: cell-based, mouse; conditions: factor added in Step 2, TLR agonist-induced
Procedure: FIG. 7A is a histogram showing Step 2 cultures (cells were re-plated in GMCSF and IL-4 at 0 hr, CpG+LPS added at 24 hr, FACS performed at 44 hr), except that listed immunosuppressive factors were added at 0 hr, 1 hr, 2 hr, or 4 hr of Step 2 culture, and supernatants analyzed by ELISA in triplicate for IL-12 p70 content at 44 hr of Step 2 culture. Error bars indicate s.d. This is representative of three experiments;
We investigated whether Flt3L+IL6 proliferative conditioning conferred uniform responsiveness to DC1 polarization stimuli even in the presence of putative immunosuppressive factors. We added IL10, TGFβ1 VEGF, or PGE2 at doses which equaled and exceeded those reported to inhibit the maturation of other DC preparations (Kao, J Y et al. J. Immunol. 170, 3806-3811 (2003); Kobie, J J et al. Cancer Res. 63, 1860-1864 (2003); Gabrilovich, D. et al. Blood 92, 4150-4166 (1998); Dikov, M M et al. J. Immunol. 174, 215-222 (2005); Shurin, M R et al. Int. J. Cancer 101, 61-68 (2002); Yang, A S et al. Cancer Res. 63, 2150-2157 (2003); Kalinski, P. et al. J. Immunol. 161, 2804-2809 (1998)).
(§1) Step 2 was initiated (0 hr) in CM, rmGMCSF and optionally rmIL4. Step 2 cultures were performed in 24 well cluster plates, 4 million BM cells per well in 2 ml CM. DC1 polarization stimuli such as CpG (ODN 1826, 5 μM) and LPS 50 ng/ml were added between 18-24 hrs, and cells harvested at 40-44 hrs for analyses. When included, immunosuppressive agents rmIL10, rmVEGF, rhTGFβ1 or PGE2 were added between 0 and 24 hrs of Step 2 culture at doses specified in Results. Alternatively, particulate tumor cells, either viable unirradiated, viable irradiated (10,000 cGy), or killed freeze-thawed lysate (Cohen, P A et al. Cancer Res. 54, 1055-1058 (1994)), were added to Step 2 BM cells. Viable tumor cells were sometimes labelled with CFSE (Molecular Probes, Eugene, Oreg.) to allow their identification and exclusion during subsequent FACS analyses (Peng, L. et al. J. Immunol. 169, 4811-4821 (2002)).

[2] = system: CD34^pos stem cell subpopulation; assay: Step 1 proliferative culture of fresh bone marrow: numeric expansion; assay type: cell-based, mouse; conditions: for superimposed proliferative impacts: added to Step 1 culture; for effectiveness as alternative Step 1 factor: rhIL6 100 ng/ml instead of mIL6, rSCF instead of mSCF
Procedure: FIG. 6 is a chart showing numeric expansion resulting from the exposure of bone marrow (BM) suspensions to various factors. BM freshly harvested from C57BL/6 mice was cultured for 6 days in the specific factors, then harvested and counted. Each bar represents 3-11 determinations±s.d., each performed in synchronous comparison to at least five other groups. […] Synergistic expansions reflected a 35-80 fold selective outgrowth of the CD34^pos subpopulation (see FIG. 10);
FIG. 10 is a histogram showing gross numeric expansion of fresh bone marrow (BM) reflective of selective outgrowth of the CD34^pos subpopulation. Freshly prepared mouse BM cell suspensions were stained with FITC-anti-CD34 mAb to enable isolation of CD34^pos and CD34^neg subpopulations by a FACSAria cell sorter. CD34^pos cells initially represented 10.8±7% of the total BM cells. The following groups were then cultured for 6 days in 75 cm^2 flasks, either in Flt3L+SCF+IL6 (striped bars) or in Flt3L+IL6 (solid bars): “Unfractionated BM” (12-15 million per flask); “FACS sorted CD34^neg cells” (12-15 million per flask); “FACS sorted CD34^pos cells” (2-3 million per flask); or “FACS sorted, unirradiated CD34^pos cells plus irradiated (3,000 cGy) CD34^neg cells.” Labels above bars indicate fold numeric expansion during the 6 day culture. […] (Not done=group not done);
We cultured fresh mouse BM in two stages, a 6-7 day proliferative phase (Step 1) and a 2-3 day post-proliferative phase (Step 2). […] FACS sorting experiments confirmed that such expansion represented a net 35-80 fold proliferation of the minor (<12%) CD34^pos stem cell subpopulation, with rapid dropout of the initially CD34^neg subpopulation (FIG. 10). Stem cell proliferation persisted well past day 7 if medium and factors were adequately replenished (not shown).
Single cell suspensions were prepared from the femurs and tibias of healthy mice (Kuriyama, H. et al. Dev. Biol. (Basel) 116, 169-178 (2004)). Following RBC lysis by ammonium chloride, no further processing was performed. […] BM cells were normally cultured for 6-7 days, harvested, counted, and washed twice in PBS prior to initiation of Step 2 cultures.

L-selectin^low T cells = assay: T cell co-cultures with variously conditioned DCs; assay type: cell-based, mouse; conditions: DCs from other conditioning treatments
Procedure: Step 2 DC cultures were performed in rGMCSF and rIL-4 with irradiated MCA-203 cells added at 24 hr and CpG+LPS added at 44 hr. Four hours later, DCs were harvested for co-culture with L-selectin^low T cells freshly harvested from MCA-203 tumor-bearing mice. T cells were co-cultured with DCs at an 8:1 ratio or were activated with immobilized anti-CD3. […] Cultures shown also received exogenous IL-2, IL-7 and IL-15.
Cultures shown also received exogenous IL2, IL7 and IL15.
Conditioned DC precursors were transferred to Step 2 culture, exposed to viable irradiated tumor, optionally further activated with CpG+LPS, then co-cultured with tolerized TDLN T cells from mice bearing the relevant tumor.
Prior to harvest of T cells from tumor-bearing mice, DCs were prepared under various Step 1 conditions in CM; Step 2 was performed in 1% non heat-deactivated mouse serum instead of FCS (CM-MS), during which BM cultures were exposed to viable irradiated tumor cells, then CpG+LPS as denoted in Results. On the day of DC harvest, T cells were freshly harvested from the tumor-draining lymph nodes of mice bearing 12 day tumors. The L-selectin^low (tolerized pre-effector) fraction of T cells was isolated by negative selection as described previously (Peng, L. et al. J. Immunol. 165, 5738-5749 (2000); Wang, L. et al. J. Translational Med. 2, 41 (2004)), and cultured in CM-MS with immobilized anti-CD3 (Peng, L. et al. J. Immunol. 165, 5738-5749 (2000); Wang, L. et al. J. Translational Med. 2, 41 (2004)) or variously conditioned DCs. Beginning on day 2 of T cell culture, some groups also received rhIL2 (24 I.U./m1), or rhIL2, rhIL7 (50 ng/ml) and rhIL15 (5 ng/ml). T cells were harvested for assays and adoptive therapy after 12 days of culture.

[3] = system: CD11c^pos cells and CD34^pos cells; assay: In vivo cytokine treatment for six days: spleen and BM CD11c^pos and CD34^pos cells; parameters: species or system BALB/c mice; conditions: with rhFlt3-L 10 mcg i.p. daily
Text: FIGS. 15A-D are a series of graphs showing BALB/c mice treated for six days with either (A) nothing, (B) rhFlt3-L 10 mcg i.p. daily, (C) rhIL-6 mcg i.p. three times daily, and (D) rhFlt3-L 10 mcg i.p. daily plus rhIL-6 50 mcg i.p. three times daily. The next day mice were euthanized, spleens and BM harvested, and CD11c^pos cells (committed DC lineage) and CD34^pos cells (stem cells, potential DC precursors) quantified. Results are representative of four experiments. […] This is representative of four experiments;
FIGS. 16A-D are a series of graphs showing BALB/c mice treated for six days with either (A) nothing, (B) rhFlt3-L 10 mcg i.p. daily, (C) rhFlt3-L 10 mcg i.p. daily plus rhIL-6 50 mcg i.p. three times daily, (D) rhFlt3-L 10 mcg i.p. daily plus rhIL-6 50 mcg i.p. once daily, (E) rhFlt3-L 10 mcg i.p. daily plus rhIL-6 10 mcg i.p. three times daily, and (F) rhFlt3-L 10 mcg i.p. daily plus rhIL-6 10 mcg i.p. once times daily. The next day mice were euthanized, spleens and BM harvested, and CD11c^pos cells (committed DC lineage) and CD34^pos cells (stem cells, potential DC precursors) quantified. Results are representative of three experiments.

BM cells = assay: Step 2 culture: spontaneous DC maturation without exogenous maturation stimuli; assay type: cell-based, mouse; conditions: after Flt3L or Flt3L+IL6 conditioning
Text: DC differentiation typically arrests at the immature stage unless DCs are exposed to additional signals such as CD40 ligation, calcium ionophore or TLR agonists (Xu, S. et al. J. Immunol. 171, 2251-2261 (2003); Bonifaz, L. et al. J. Exp. Med. 196, 1627-1638 (2002); Napolitani, G. et al. Nat. Immunol. 6, 769-776 (2005); Czerniecki, B J et al. J. Immunol. 159, 3823-3837 (1997); Mailliard, R B et al. Cancer Res. 64, 5934-5937 (2004)). […] Instead, uniform upregulation of MHC Class II and CD11c ensued within hours of transfer from Flt3L+IL6 into GMCSF, followed by upregulation of CD40, co-stimulatory molecules and CCR7 between 48 and 72 hours of Step 2 culture.
as §1

conditioned BM cells = assay: Tumor contact during Step 2 culture: DC maturation and IL12 production; assay type: cell-based, mouse
Procedure: Because DC ingestion of cellular material can induce tolerogenic DCs (Bonifaz, L. et al. J. Exp. Med. 196, 1627-1638 (2002)), we tested the impact of exposing DCs to large volumes of tumor at 16-24 hours of Step 2 culture in GMCSF, to determine tumor's impact on subsequent spontaneous maturation. To cluster plate wells each containing 4 million conditioned BM cells, we added either 4 million freeze-thawed (killed) tumor cells; 3 million irradiated (10,000 cGy), trypan-excluding tumor cells; or 2 million unirradiated, actively proliferating tumor cells. Given the much larger dimensions of viable tumor cells compared to the cultured BM cells, these represented voluminous tumor challenges.
as §1

**Q.** Which “impact upon DC1 polarization (phenotypic maturation, IL12)” value (“impact upon DC1 polarization” below) [1] does the source give for VEGF here?
**A.** negligible impacts

**Q.** “TGFI31: immunosuppressive factor, recombinant human TGFβ1” was tested. Which “impact upon DC1 polarization” value [1] did it give?
**A.** paradoxically enhanced both phenotypic maturation and IL12 secretion

**Q.** Which superimposed proliferative impacts [2] does the source give for fibronectin here?
**A.** negligible superimposed proliferative impacts

**Q.** How did the “rescue of DC toxicity to T cells by exogenous cytokine” value (L-selectin^low T cells) turn out when IL15 was run?
**A.** could not be rescued

**Q.** For `CCCCC[C@H](O)/C=C/[C@H]1[C@H](O)CC(=O)[C@@H]1C/C=C\CCCC(=O)O` [PGE2, prostaglandin E2, reference compound], which “impact upon DC1 polarization” value [1] is on record?
**A.** substantially inhibited

**Q.** Which results are given for rhIL6: recombinant human interleukin-6?
**A.** effectiveness as alternative Step 1 factor [2]: also effective; 10 mcg versus 50 mcg dosing [3]: as effective as 50 mcg dosing; thrice daily versus once daily administration [3]: more effective than once daily

B1: IL7 (protein, UniProt P13232 26-177, looked up)
Interleukin-7: DCDIEGKDGKQYESVLMVSIDQLLDSMKEIGSNCLNNEFNFFKRHICDANKEGMFLFRAARKLRQFLKMNSTGDFDLHLLKVSEGTTILLNCTGQVKGRKPAALGEAQPTKSLEENKSLKEQKKLNDLCFLKRLLQEIKTCWNKILMGTKEH
**Q.** For B1, which “rescue of DC toxicity to T cells by exogenous cytokine” value (L-selectin^low T cells) is on record?
**A.** could not be rescued

B2: IL4: recombinant mouse IL4 (protein, UniProt P07750 21-140, looked up)
Interleukin-4: HIHGCDKNHLREIIGILNEVTGEGTPCTEMDVPNVLTATKNTTESELVCRASKVLRIFYLKHGKTPCLKKNSSVLMELQRLFRAFRCLDSSISCTMNESKSTSLKDFLESLKSIMQMDYS
**Q.** For B2, which “spontaneous DC maturation with exogenous IL4 in Step 2” value (BM cells) is on record?
**A.** even more robust

B3: IFNγ: recombinant mouse interferon gamma (protein, UniProt P01580 23-155, looked up)
Interferon gamma: HGTVIESLESLNNYFNSSGIDVEEKSLFLDIWRNWQKDGDMKILQSQIISFYLRLFEVLKDNQAISNNISVIESHLITTFFSNSKAKKDAFMSIAKFEVNNPQVQRQAFNELIRVVHQLLPESSLRKRKRSRC
**Q.** For B3, which IL12 production (conditioned BM cells; IFNγ treatment alone) is on record?
**A.** Neither tumor nor IFNγ treatment alone induced IL12 production

**Q.** And the “IL12 (p70) production” value (conditioned BM cells; tumor exposure combined with IFNγ, Flt3L+IL6 conditioned)?
**A.** could induce IL12 (p70) production

B4: rSCF: recombinant stem cell factor, alternative to mSCF (protein, UniProt P20826 26-190, looked up)
Soluble KIT ligand: KEICGNPVTDNVKDITKLVANLPNDYMITLNYVAGMDVLPSHCWLRDMVIQLSLSLTTLLDKFSNISEGLSNYSIIDKLGKIVDDLVLCMEENAPKNIKESPKRPETRSFTPEEFFSIFNRSIDAFKDFMVASDTSDCVLSSTLGPEKDSRVSVTKPFMLPPVAA
**Q.** With B4 as the molecule, how does the “effectiveness as alternative Step 1 factor” value [2] read?
**A.** also effective

B5: IL10: immunosuppressive factor, recombinant mouse IL10 (protein, UniProt P18893 19-178, looked up)
Interleukin-10: SRGQYSREDNNCTHFPVGQSHMLLELRTAFSQVKTFFQTKDQLDNILLTDSLMQDFKGYLGCQALSEMIQFYLVEVMPQAEKHGPEIKEHLNSLGEKLKTLRMRLRRCHRFLPCENKSKAVEQVKSDFNKLQDQGVYKAMNEFDIFINCIEAYMMIKMKS
**Q.** With B5 as the molecule, how does the “impact upon DC1 polarization” value [1] read?
**A.** negligible impacts

B6: thrombopoeitin: recombinant murine thrombopoeitin (protein, UniProt P40226 22-356, looked up)
Thrombopoietin: SPVAPACDPRLLNKLLRDSHLLHSRLSQCPDVDPLSIPVLLPAVDFSLGEWKTQTEQSKAQDILGAVSLLLEGVMAARGQLEPSCLSSLLGQLSGQVRLLLGALQGLLGTQLPLQGRTTAHKDPNALFLSLQQLLRGKVRFLLLVEGPTLCVRRTLPTTAVPSSTSQLLTLNKFPNRTSGLLETNFSVTARTAGPGLLSRLQGFRVKITPGQLNQTSRSPVQISGYLNRTHGPVNGTHGLFAGTSLQTLEASDISPGAFNKGSLAFNLQGGLPPSPSLAPDGHTPFPPSPALPTTHGSPPQLHPLFPDPSTTMPNSTAPHPVTMYPHPRNLSQET
**Q.** How did the superimposed proliferative impacts [2] turn out when B6 was run?
**A.** negligible superimposed proliferative impacts
